Laboratory results reported in patent publication US20230013336A1, “SYNECHOCOCCUS ELONGATUS MUTANTS, VARIANTS AND USES THEREOF TO PRODUCE AN ESSENTIAL AMINO ACID” (Purdue Research Foundation, priority 2021, published 2023).

System: PCC 11801
Assay: MMS mutagenesis kill rate
Assay type: cell-based, Synechococcus elongatus sp. PCC 11801
Settings: 1% (v/v) MMS for 90 seconds, quenched with 5% sodium thiosulfate
Protocol: Random mutagenesis was performed by modifying a previously described protocol (Deshpande et al. (2020), infra) with methylmethanesulfonate (MMS) and ultra-violet (UV) irradiation as the mutagens. Cells were prepared for random mutagenesis by pelleting exponentially growing cultures (OD ˜0.6-1) of PCC 11801 and resuspending in 1 mL of fresh BG-11M media.
For MMS mutagenesis, 1% (v/v) MMS (Sigma-Aldrich, St. Louis, Mo.) was added for 90 seconds, and the reaction was quenched by the addition of 5% (w/w) sodium thiosulfate solution to yield a ˜85-95% kill rate. For UV mutagenesis, the culture was subjected to 90 seconds of UV light to yield a kill rate of ˜90%.
The mutagenized cultures were incubated at 38° C. overnight in the dark before selection. To select for overproducers, the phenylalanine (Phe) analog 3-(2-thienyl)-dl-alanine (Sigma-Aldrich, St. Louis, Mo.) was applied to BG-11M agar plates in concentrations ranging from 0.5-2 mg/ml. The wild-type and mutagenized cultures were diluted and spread on BG-11M (to test kill rate) and BG-11M analog-containing plates, and were incubated at 38° C. until colonies appeared. Colonies (i.e. variant Synechococcus elongatus sp. strains) that successfully grew on analog selection plates were picked (e.g., selected) and re-streaked on selective plates for at least three rounds to enable complete segregation of mutations.

**Q.** Which kill rate does the source give for `COS(C)(=O)=O` [MMS, methylmethanesulfonate] here?
**A.** 85-95%
